Assay results as given in US10214535B2, “Hydroxmethyl piperidine orexin receptor antagonists” (MERCK SHARP & DOHME CORP., priority 2014, dated 2019).
Like-named read-outs stand apart in the source and are kept apart here.

Experiments:
human orexin-2 receptor = human orexin-2 receptor (Homo sapiens (Human), UniProt O43614); assay: hOX2R FLIPR Ca2+ flux assay; format: cell-based; conditions: CHO cells expressing the human orexin-2 receptor; agonist 70 pM Ala-6,12 orexin-A
Method: In a typical experiment the OX1 and OX2 receptor antagonistic activity of the compounds of the present invention was determined in accordance with the following experimental method. For intracellular calcium measurements, Chinese hamster ovary (CHO) cells expressing the rat orexin-1 receptor or the human orexin-2 receptor, are grown in Iscove's modified DMEM containing 2 mM L-glutamine, […], 1% hypoxanthine-thymidine supplement, 100 U/ml penicillin, 100 μg/ml streptomycin and 10% heat-inactivated fetal calf serum (FCS). The cells are seeded at 20,000 cells/well into Becton-Dickinson black 384-well clear bottom sterile plates coated with poly-D-lysine. All reagents were from GIBCO-Invitrogen Corp. The seeded plates are incubated overnight at 37° C. and 5% CO2. Ala-6,12 human orexin-A as the agonist is prepared as a 1 mM stock solution in 1% bovine serum albumin (BSA) and diluted in assay buffer (HBSS containing 20 mM HEPES, 0.1% BSA and 2.5 mM probenecid, pH7.4) for use in the assay at a final concentration of 70 pM. Test compounds are prepared as 10 mM stock solution in DMSO, then diluted in 384-well plates, first in DMSO, then assay buffer. On the day of the assay, cells are washed 3 times with 100 μl assay buffer and then incubated for 60 min (37° C., 5% CO2) in 60 μl assay buffer containing 1 μM Fluo-4AM ester, 0.02% pluronic acid, and 1% BSA. The dye loading solution is then aspirated and cells are washed 3 times with 100 μl assay buffer. 30 μl of that same buffer is left in each well. Within the Fluorescent Imaging Plate Reader (FLIPR, Molecular Devices), test compounds are added to the plate in a volume of 25 μl, incubated for 5 min and finally 25 μl of agonist is added. Fluorescence is measured for each well at 1 second intervals for 5 minutes and the height of each fluorescence peak is compared to the height of the fluorescence peak induced by 70 pM Ala-6,12 orexin-A with buffer in place of antagonist. For each antagonist, IC50 value (the concentration of compound needed to inhibit 50% of the agonist response) is determined. Alternatively, compound potency can be assessed by a radioligand binding assay (described in Bergman et. al. Bioorg. Med. Chem. Lett. 2008, 18, 1425-1430) in which the inhibition constant (Ki) is determined in membranes prepared from CHO cells expressing either the OX1 or OX2 receptor. The intrinsic orexin receptor antagonist activity of a compound which may be used in the present invention may be determined by these assays.

hOX1R = hOX1R (Homo sapiens, UniProt O43613); assay: hOX1R FLIPR Ca2+ flux assay; format: cell-based
[1] = CHO cells expressing orexin-1 receptor, agonist 70 pM Ala-6,12 orexin-A, read-out: hOX1R FLIPR IC50

Sequence of human orexin-2 receptor (O43614 whole entry): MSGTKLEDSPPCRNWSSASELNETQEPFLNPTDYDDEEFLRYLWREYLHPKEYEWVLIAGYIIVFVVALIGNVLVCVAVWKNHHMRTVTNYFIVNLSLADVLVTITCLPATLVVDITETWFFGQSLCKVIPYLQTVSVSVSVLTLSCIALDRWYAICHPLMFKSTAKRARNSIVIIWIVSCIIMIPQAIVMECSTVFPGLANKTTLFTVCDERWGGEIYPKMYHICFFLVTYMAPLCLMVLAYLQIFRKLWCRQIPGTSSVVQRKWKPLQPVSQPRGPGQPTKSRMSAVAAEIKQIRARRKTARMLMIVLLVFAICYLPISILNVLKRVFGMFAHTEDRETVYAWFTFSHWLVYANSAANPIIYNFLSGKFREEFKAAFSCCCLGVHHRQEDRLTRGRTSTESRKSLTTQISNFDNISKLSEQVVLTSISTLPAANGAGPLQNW

| SMILES | IC50 (human orexin-2 receptor) | IC50 (hOX1R; [1]) | IC50 (hOX1R) |
| --- | --- | --- | --- |
| COC(=O)c1c(OC)cccc1O[C@@H]1CC[C@@H](CO)N(C(=O)c2ccccc2-n2nccn2)C1 [Example 1, Methyl 2-{[(3R,6S)-6-(hydroxymethyl)-1-{[2-(2H-1,2,3-triazol-2-yl)phenyl]carbonyl}-piperidin-3-yl]oxy}-6-methoxybenzoate] | 198 nM | > 10000 nM | – |
| CC1(C)OC(=O)c2c1ccnc2O[C@@H]1CC[C@@H](CO)N(C(=O)c2ccccc2-n2nccn2)C1 [Example 2, 4-{[(3R,6S)-6-(Hydroxymethyl)-1-{[2-(2H-1,2,3-triazol-2-yl)phenyl]carbonyl}piperidin-3-yl]oxy}-1,1-dimethylfuro[3,4-c]pyridin-3(1H)-one] | 21 nM | > 10000 nM | – |
| N#Cc1ccnc(O[C@@H]2CC[C@@H](CO)N(C(=O)c3ccccc3-n3nccn3)C2)c1 [Example 3, 2-{[(3R,6S)-6-(hydroxymethyl)-1-{[2-(2H-1,2,3-triazol-2-yl)phenyl]carbonyl}piperidin-3-yl]oxy}pyridine-4-carbonitrile] | 17 nM | > 10000 nM | – |
| COC(=O)c1c(C#N)cccc1O[C@@H]1CC[C@@H](CO)N(C(=O)c2ccccc2-n2nccn2)C1 [Example 4, methyl 2-cyano-6-{[(3R,6S)-6-(hydroxymethyl)-1-{[2-(2H-1,2,3-triazol-2-yl)phenyl]carbonyl}piperidin-3-yl]oxy} benzoate] | 49 nM | > 10000 nM | – |
| Cc1ccnc(O[C@@H]2CC[C@@H](CO)N(C(=O)c3ccccc3-n3nccn3)C2)c1 [Example 5, [(2S,5R)-5-[(4-methylpyridin-2-yl)oxy]-1-{[2-(2H-1,2,3-triazol-2-yl)phenyl]carbonyl}piperidin-2-yl]methanol] | 18 nM | 1710 nM | – |
| O=C(c1ccccc1-n1nccn1)N1C[C@H](Oc2cc(OCC(F)F)ccn2)CC[C@H]1CO [Example 6, [(2S,5R)-5-{[4-(2,2-difluoroethoxy)pyridin-2-yl]oxy}-1-{[2-(2H-1,2,3-triazol-2-yl)phenyl]carbonyl}piperidin-2-yl]methanol] | 60 nM | – | > 10000 nM |
| Cc1c(C#N)ccnc1O[C@@H]1CC[C@@H](CO)N(C(=O)c2ccccc2-n2nccn2)C1 [Example 7, 2-{[(3R,6S)-6-(hydroxymethyl)-1-{[2-(2H-1,2,3-triazol-2-yl)phenyl]carbonyl}piperidin-3-yl]oxy}-3-methylpyridine-4-carbonitrile] | 8 nM | 1780 nM | – |
| CCOc1ccccc1C(=O)N1C[C@H](Oc2nccc(C#N)c2OC)CC[C@H]1CO [Example 10, 2-{[(3R,6S)-1-[(2-Ethoxyphenyl)carbonyl]-6-(hydroxymethyl)piperidin-3-yl]oxy}-3-methoxypyridine-4-carbonitrile] | 12 nM | > 10000 nM | – |
| COc1c(C#N)ccnc1O[C@@H]1CC[C@@H](CO)N(C(=O)c2cccnc2OCC(F)(F)F)C1 [Example 11, 2-{[(3R,6S)-6-(hydroxymethyl)-1-{[2-(2,2,2-trifluoroethoxy)pyridin-3-yl]carbonyl}piperidin-3-yl]oxy}-3-methoxypyridine-4-carbonitrile] | 9 nM | 4080 nM | – |
| COc1c(C#N)ccnc1O[C@@H]1CC[C@@H](CO)N(C(=O)c2cccnc2OC(C)C)C1 [Example 12, 2-{[(3R,6S)-6-(hydroxymethyl)-1-{[2-(1-methylethoxy)pyridin-3-yl]carbonyl}piperidin-3-yl]oxy}-3-methoxypyridine-4-carbonitrile] | 27 nM | > 10000 nM | – |
| COc1c(C#N)ccnc1O[C@@H]1CC[C@@H](CO)N(C(=O)c2ccccc2OC(F)F)C1 [Example 13, 2-{[(3R,6S)-1-{[2-(difluoromethoxy)phenyl]carbonyl}-6-(hydroxymethyl)piperidin-3-yl]oxy}-3-methoxypyridine-4-carbonitrile] | 39 nM | > 10000 nM | – |
| COc1c(C#N)ccnc1O[C@@H]1CC[C@@H](CO)N(C(=O)c2ccccc2OC(F)(F)F)C1 [Example 14, 2-{[(3R,6S)-(hydroxymethyl)-1-{[2-(trifluoromethoxy)phenyl]carbonyl}piperidin-3-yl]oxy}-3-methoxypyridine-4-carbonitrile] | 14 nM | > 10000 nM | – |
| CC(C)(O)[C@@H]1CC[C@@H](Oc2cc(C#N)ccn2)CN1C(=O)c1ccccc1-n1nccn1 [Example 15, 2-{[(3R,6S)-6-(1-Hydroxy-1-methylethyl)-1-{[2-(2H-1,2,3-triazol-2-yl)phenyl]carbonyl}-piperidin-3-yl]oxy}pyridine-4-carbonitrile] | 31 nM | > 10000 nM | – |
| Cc1c(C#N)ccnc1O[C@@H]1CC[C@@H](C(C)(C)O)N(C(=O)c2ccccc2-n2nccn2)C1 [Example 16, 2-{[(3R,6S)-6-(1-hydrox-1-methylethyl)-1-{[2-(2H-1,2,3-triazol-2-yl)phenyl]carbonyl}piperidin-3-yl]oxy}-3-methylpyridine-4-carbonitrile] | 27 nM | 1330 nM | – |
